{"source": "patent US10130590B2", "about": "“Methods of treating cancer with atovaquone-related compounds” (DANA-FARBER CANCER INSTITUTE, INC., priority 2013, dated 2018)", "key": {"STAT5": {"system": "STAT5", "experiment": "STAT5 cell-based luciferase reporter system", "protocol": "To determine if atovaquone inhibits STAT3, it was tested in a cell-based reporter system of STAT3 transcriptional activity (Nelson E A, et al. (2008) Nifuroxazide inhibits survival of multiple myeloma cells by directly inhibiting STAT3. Blood 112(13):5095-5102). These cells lack basal STAT3 activation; upon IL-6 treatment, STAT3 becomes activated and drives transcription of a STAT3-dependent luciferase reporter gene. The STAT3-luc reporter cells were pre-treated with drug for 1 hour, then stimulated with IL-6 (10 ng/ml) for 5 hr. Activity of firefly luciferase was measured and normalized by cell viability (Cell Titer Glo). […] To determine if atovaquone inhibits STAT3 activity specifically over other transcription factors, it was tested in cell-based reporter systems for STAT1 and STAT5, two other STAT family members, and NF-κB, an unrelated transcription factor."}, "[1]": {"system": "unfolded protein response (UPR)", "experiment": "Other UPR branches: XBP1 splicing, ATF6 cleavage, UPR target genes", "assay_type": "cell-based", "protocol": "Total RNA was reverse transcribed using random hexamers and assayed by qRT-PCR as previously described (see, Grivennikov S I, Greten F R, & Karin M (2010) Immunity, inflammation, and cancer. Cell 140(6):883-899).\nIn asking how atovaquone induces REDD1, a possible role for ATF4, which regulates REDD1 expression was considered. ATF4 is regulated mainly at the level of translation and is induced upon phosphorylation of eIF2α. […] K562 and AML2 cells, which lack STAT3 activation, were treated with rapamycin for 72 hours. […] For these reasons, it was hypothesized that atovaquone induces eIF2α phosphorylation, with a resulting increase in ATF4 protein and signaling. U266, K562, and SKBR3 cells were treated with atovaquone (20, 20, 25 μM respectively). […] The phospho-eIF2α/ATF4 pathway represents one branch of the UPR, whose other branches consist of ATF6 cleavage and IRE1-mediated XBP1 splicing. […] Thus, atovaquone selectively activates the phospho-eIF2α/ATF4 branch of the UPR. […] Consequently, atovaquone inhibition of STAT3 is not secondary to UPR activation."}, "STAT3": {"system": "STAT3", "experiment": "STAT3-luc reporter cells, IL-6 stimulated luciferase", "assay_type": "cell-based", "protocol": "Western blotting was performed as previously described (Battle T E, Arbiser J, & Frank D A (2005) The natural product honokiol induces caspase dependent apoptosis in B-cell chronic lymphocytic leukemia (B-CLL) cells. Blood 106(2):690-697). Antibodies to phospho-MAPK (9101), total MAPK (9102), phospho-Y705 STAT3 (9131), phospho-S6 (2215), total S6 (2217), phospho-4E-BP1 (9451), total 4E-BP1 (9644), total RSK (9355), phospho-S6K (9234, 85 used at 1:5000), total S6K (2708), phospho-eIF2α (9721, used at 1:1000), total eIF2α (5324), ATF4 (11815, used at 1:1000), PDGFRβ (3169), IGF1Rβ (9750), EGFR (2232), and HER2 (2242) were from Cell Signaling Technology. Phospho-RSK antibody was from R&D (AF889). Antibodies to total STAT3 (sc-482) and gp130 (sc-656, used at 1:1000) were from Santa Cruz Biotechnology. Phospho-S727 STAT3 antibody was described previously (229). REDD1 antibody was from Proteintech (10638-1-AP, used at 1:1000). Antibody recognizing full-length and cleaved ATF6 was from Abcam (ab122897, used at 1:1000). Antibodies to tubulin (T5168) and beta actin (A5316) were from Sigma. All antibodies were used at 1:10000 dilution for western blot unless otherwise noted. For immunoprecipitations, cells were lysed in 500 μl lysis buffer (0.5% NP-40, 150 mM NaCl, 50 mM Tris pH 7.5, with protease and phosphatase inhibitors freshly added at 1:100 [Pierce, PI78443]) on ice for 15 minutes, then centrifuged for 10 minutes at 14,000 RPM and 4° C. The supernatant was transferred to a new tube and incubated with 10 μl JAK2 antibody (Santa Cruz sc-278) or a mix of two TYK2 antibodies, 10 μl of each (Santa Cruz sc-5271 and Cell Signaling Technology 9312). Immunoprecipitation was performed overnight at 4° C. with rotation. The next day, 75 μl of protein A/G beads (Santa Cruz sc-2003) were washed twice in lysis buffer, then incubated with immunoprecipitates overnight as before. The next day, the beads were spun down (1 min. at 7,500 RPM and 4° C.) and washed 3 times with 650 μl lysis buffer for 10 minutes at 4° C. with rotation, then boiled in 50 μl sample buffer+10% β-mercaptoethanol. For Western blot, 20 μl were loaded per lane. For detection of phospho-tyrosine, a mixture of two pan-phospho-tyrosine antibodies (Cell Signaling Technology 9411 and 9416, 1:1000 of each) was used. Antibody to phospho-Y1007/1008 JAK2 was from Cell Signaling 86 Technology (3771, used at 1:1000). Antibody to phospho-Y570 JAK2 was from Millipore (09-241, used at 1:1000). Luminometric Assays Luciferase reporter cell lines were described previously (186). Firefly luciferase values were normalized by concurrent cell viability. Cell viability was measured as ATP-dependent luminescence by Cell Titer Glo (Promega).\nTo determine if atovaquone inhibits STAT3, it was tested in a cell-based reporter system of STAT3 transcriptional activity (Nelson E A, et al. (2008) Nifuroxazide inhibits survival of multiple myeloma cells by directly inhibiting STAT3. Blood 112(13):5095-5102). These cells lack basal STAT3 activation; upon IL-6 treatment, STAT3 becomes activated and drives transcription of a STAT3-dependent luciferase reporter gene. […] Activity of firefly luciferase was measured and normalized by cell viability (Cell Titer Glo). […]\nSTAT3-luc reporter cells were pre-treated with atovaquone, buparvaquone or TDBHN (concentration 10, 20, 30, or 40 μM) for 1 hour, then stimulated with IL-6 (10 ng/ml) for 5 hours. The activity of firefly luciferase was measured and normalized by cell viability (Cell Titer Glo)."}, "[2]": {"system": "U266 human multiple myeloma cells", "experiment": "U266 multiple myeloma xenograft in NSG mice", "assay_type": "in vivo", "conditions": "200 mg/kg daily by oral gavage", "protocol": "Female NSG mice (obtained from The Jackson Laboratory, Bar Harbor, Me.) were injected subcutaneously with 5×10^6 U266 cells in 30% Matrigel, and tumors were allowed to grow to a volume of approximately 100 mm^3. At that point, animals were treated daily by oral gavage with either vehicle (5% benzyl alcohol in water), generic atovaquone, or Mepron® brand atovaquone (GlaxoSmithKline LLC, Philadelphia, Pa.) at a dose of 200 mg/kg."}}}
{"smiles": "O=C1C(O)=C([C@H]2CC[C@H](c3ccc(Cl)cc3)CC2)C(=O)c2ccccc21", "note": "[atovaquone, trans-2-[4-(4-chlorophenyl)cyclohexyl]-3-hydroxy-1,4-naphthalenedione]", "values": [{"measurement": "STAT5 transcription factor activity", "setting": "STAT5", "result": "modestly affected at the higher doses"}, {"measurement": "levels of BiP", "setting": "[1]", "result": "no effect on levels of BiP"}, {"measurement": "ATF6 cleavage", "setting": "[1]; SKBR3, K562, U266, 25, 20, 20 μM", "result": "did not induce"}, {"measurement": "spliced XBP1", "setting": "[1]; U266, K562, SKBR3, 20, 20, 25 μM, 6 hours", "result": "did not induce spliced XBP1"}, {"measurement": "UPR target gene expression", "setting": "[1]; U266, K562, SKBR3, 6 hours, in contrast to tunicamycin and thapsigargin", "result": "did not induce any UPR target genes other than those downstream of ATF4"}, {"measurement": "STAT-3 reporter gene expression", "setting": "STAT3; 10, 20, 30, or 40 μM for 1 hour, then IL-6 (10 ng/ml) 5 hours, relative to controls", "result": "inhibited STAT-3 reporter gene expression"}, {"measurement": "luciferase induction by IL-6 (STAT3 transcriptional activity)", "setting": "STAT3; pre-treated 1 hour, then IL-6 (10 ng/ml) 5 hr, normalized by cell viability", "result": "dose-dependent inhibition of luciferase induction by IL-6"}, {"measurement": "effect on STAT3 activity compared with STAT1, STAT5 and NF-κB", "setting": "STAT3; reporter systems", "result": "much greater"}, {"measurement": "median survival of the treated animals", "setting": "[2]", "result": "increase in the median survival"}, {"measurement": "tumor growth rate", "setting": "[2]; from tumor volume approximately 100 mm^3", "result": "prominent decrease in the growth rate"}]}
